Patent publication US7579323B1, “Hemiasterlin analogs” (The University of British Columbia, priority 1997, dated 2009)
Structures can show the parent of a compound that is named as a salt. Where two headings read alike, the source gives them in different places.

Columns and labels:
[1] = tested on: human colon carcinoma LOVO; format: in vivo, Athymic nu/nu female mice; conditions: for % T/C day 7 / % T/C day 14 / % T/C day 21 / % T/C day 28: LOVO xenograft, SPA-110 intravenously, Vincristine intraperitoneally, p≦0.05; for % T/C day 7: day 7 post staging; for % T/C day 14: day 14 post staging; for % T/C day 21: day 21 post staging; for % T/C day 28: day 28 post staging
Experimental: The compound SPA-110 was evaluated in vivo using standard pharmacological test procedures which measure its ability to inhibit the growth of human tumor xenografts. The human colon carcinoma LOVO (American Type Culture Collection, Rockville, Md. #CCL-229) was grown in tissue culture in RPMI supplemented with 10% FBS. Athymic nu/nu female mice (Charles River, Wilmington, Mass.) were injected sub-cutaneously in the flank area with 7.0×10^6 LOVO cells. When tumors attained a mass of between 80 and 120 mg, the mice were randomized into treatment groups (day zero). Animals were treated intravenously once a day on days 1, 5, and 9 post staging (day zero) with 1 mg/kg/dose of SPA-110 prepared in 2.5% ethanol in saline or with saline as the vehicle control. Some animals were treated intraperitonealy once a day on days 1, 5 and 9 post staging with 1 mg/kg/dose Vincristine as a positive control. Tumor mass was determined every 7 days [(length×width^2)/2] for 28 days post staging. RTG or relative tumor growth (Mean tumor mass on days 7, 14, 21 and 28 divided by the mean tumor mass on day zero) was determined for each treatment group. % T/C was calculated as RTC (treated group) % RTC (vehicle control group)×100. Statistical analysis (Student-t-test) of log relative tumor growth was used to compare treated verses control group in each experiment. A p-value (p≦0.05), which indicates a statistically significant reduction in relative tumor growth, was obtained in each case. 5 of 5 animals treated at day 28 with SPA-110 survived. 9 of 10 animals treated at day 28 with vincristine survived.

[2] = tested on: p53+ and p53− variants of human breast cancer MCF-7 cells and A549 tumor cells; experiment: Assay for cytotoxicity (J. Immunol. Methods 65:55-63), SPA-110 compared to hemiasterlin; format: cell-based; conditions: MCF-7 p53+ and p53− and A549 cells; FIGS. 5A and 5B; naturally occurring compound = hemiasterlin
Experimental: Cytotoxicity of SPA-110 compared to hemiasterlin as against p53+ and p53− variants of human breast cancer MCF-7 cells and A549 tumor cells was determined according to the methods described in J. Immunol. Methods 65:55-63 (1983).

MCF-7 mp53− cells = experiment: Assay for antimitotic activity, ELISA with mitosis-specific antibody TG-3; format: cell-based, human; conditions: 20 hours incubation, FIG. 6, naturally occurring compound = hemiasterlin
Experimental: Antimitotic activity is detected by enzyme-linked immunosorbent assay using a mitosis-specific antibody, TG-3 (from Albert Einstein College of Yeshiva University, Bronx, N.Y.; and see: PCT application published Jul. 4, 1996 under WO96/20218).
MCF-7 mp 53^− cells (expressing a dominant-negative p53 mutation as described in S. Fan, et al. […] Cancer Research 55:1649-1654) were cultured as monolayers in DMEM supplemented with 10% fetal bovine serum, 2 mM L-glutamine, 50 units/ml penicillin, 50 μg/ml streptomycin, 1 mM sodium pyruvate, MEM non-essential amino acids, 1 μg/ml bovine insulin, 1 μg/ml hydrocortisone, 1 ng/ml human epidermal growth factor, and 1 ng/ml β-estradiol at 37° C. in humidified 5% CO2. The cells were seeded at 10,000 cells per well of 96-well polystyrene tissue culture plates (Falcon) in a volume of 200 μl cell culture medium. The cells were allowed to grow for 24 hours and compounds were added at about 1 μg/ml or 10 μg/ml (from 1000-fold stocks in dimethylsulfoxide) and the cells were incubated for 20 hours. Nocodazole (Sigma) served as a positive control. […] 100 μl of 120 mM Na2HPO41 100 mM citric acid, pH 4.0 containing 0.5 mg/ml 2,2′-azino-bis(3-ethylbenzthiazoline-6-sulfonic acid) and 0.01% hydrogen peroxide was added for 1 hour at room temperature and the plates were read at 405 nm using a BioTek plate reader.

SMILES	Animals surviving at day 28 ([1]; LOVO xenograft mice, day 28, 1 mg/kg/dose on days 1, 5, 9)	% T/C day 7 ([1]; 1 mg/kg/dose on days 1, 5, 9) [%]	% T/C day 14 ([1]; 1 mg/kg/dose on days 1, 5, 9) [%]	% T/C day 21 ([1]; 1 mg/kg/dose on days 1, 5, 9) [%]	% T/C day 28 ([1]; 1 mg/kg/dose on days 1, 5, 9) [%]	Cytotoxicity compared to hemiasterlin [2]	Antimitotic activity compared to hemiasterlin (MCF-7 mp53− cells)	Animals surviving at day 28 ([1]; female, athymic nu/nu, mouse, in vivo, 1 mg/kg, 28 days)
CN[C@H](C(=O)NC(C(=O)N(C)C(/C=C(\C)C(=O)O)C(C)C)C(C)(C)C)C(C)(C)c1ccccc1 (stereo in doubt) [SPA-110, SPA 110-trifluoroacetate salt]	5 of 5	16	18	30	47	more cytotoxic in some instances than the naturally occurring compound	considerably greater antimitotic activity than the naturally occurring compound	
CC[C@]1(O)C[C@H]2CN(CCc3c([nH]c4ccccc34)[C@@](C(=O)OC)(c3cc4c(cc3OC)N(C=O)[C@H]3[C@@](O)(C(=O)OC)[C@H](OC(C)=O)[C@]5(CC)C=CCN6CC[C@]43[C@@H]65)C2)C1 [Vincristine, reference compound]		34	37	44	47			9 of 10
